Measurements taken from ChEMBL document CHEMBL4483862, “Open-source discovery of chemical leads for next-generation chemoprotective antimalarials” (2018).

Tested on: Plasmodium berghei
Test: Luciferase/luciferin-expressing antifolate-resistant parasites were used to infect a culture of HepG2 cells that were pre-incubated with compounds. Infected hepatocytes emit light due to the luciferase reaction. Assay results are presented as the percent inhibition of light emission compared to control. […]
Format: functional
Details: sporozoite; for IC90: read-out: LUCIFERASE INFECTION ASSAY - IC90

CC1CCCCC1Nc1ncnc2sccc12 (stereo unspecified)
IC50 (HEPG2TOX_HILL_SLOPE 0.142, HEPG2TOX_R_SQUARED 0.36, PBLUC_HILL_SLOPE 4.81, PBLUC_R_SQUARED 0.31, read-out: LUCIFERASE INFECTION ASSAY - IC50): 9.81 µM | IC90: > 10 µM

CCOc1ccc(Nc2nc3cc(S(=O)(=O)N(CC)CC)ccc3o2)cc1
IC50 (HEPG2TOX_HILL_SLOPE 0.167, HEPG2TOX_R_SQUARED 0.162, read-out: LUCIFERASE INFECTION ASSAY - IC50): > 10 µM | IC90: > 10 µM

CC(C)(C)c1ccc(CC(=O)N2CCC2(C)C(=O)Nc2cnc3ccccc3c2)cc1 (stereo unspecified)
IC50 (HEPG2TOX_HILL_SLOPE 0.158, HEPG2TOX_R_SQUARED 0.645, PBLUC_HILL_SLOPE 10.5, PBLUC_R_SQUARED 0.686, read-out: LUCIFERASE INFECTION ASSAY - IC50): 3.02 µM | IC90: 3.72 µM

Cc1cnc(C(=O)OCC(=O)N(CC(C)C)C2CCS(=O)(=O)C2)cn1 (stereo unspecified)
IC50 (HEPG2TOX_HILL_SLOPE 0.131, HEPG2TOX_R_SQUARED 0.272, PBLUC_HILL_SLOPE 1.29, PBLUC_R_SQUARED 0.0136, read-out: LUCIFERASE INFECTION ASSAY - IC50): > 10 µM | IC90: > 10 µM

CCN(c1ccccc1)S(=O)(=O)c1ccc(C(=O)NC2CCCCC2)cc1
IC50 (HEPG2TOX_HILL_SLOPE 0.154, HEPG2TOX_R_SQUARED 0.656, read-out: LUCIFERASE INFECTION ASSAY - IC50): > 10 µM | IC90: > 10 µM

COc1cc(NC(=O)COC(=O)c2ccccc2Nc2ccc(SC(F)F)cc2)c(C)cc1[N+](=O)[O-]
IC50 (HEPG2TOX_HILL_SLOPE 0.171, HEPG2TOX_R_SQUARED 0.654, read-out: LUCIFERASE INFECTION ASSAY - IC50): > 10 µM | IC90: > 10 µM

O=C(CCC(=O)N1CCC(C(O)(c2ccccc2)c2ccccc2)CC1)c1cccs1
IC50 (HEPG2TOX_HILL_SLOPE 0.15, HEPG2TOX_R_SQUARED 0.513, PBLUC_HILL_SLOPE 4.19, PBLUC_R_SQUARED 0.279, read-out: LUCIFERASE INFECTION ASSAY - IC50): 2.16 µM | IC90: 3.65 µM

Cc1ccc(-c2csc3[nH]c(=S)n(Cc4ccccc4)c(=O)c23)cc1
IC50 (HEPG2TOX_HILL_SLOPE 0.131, HEPG2TOX_R_SQUARED 0.154, PBLUC_HILL_SLOPE 0.317, PBLUC_R_SQUARED 0.176, read-out: LUCIFERASE INFECTION ASSAY - IC50): 7.53 µM | IC90: > 10 µM

O=C(CSc1nnc(-c2ccncc2)[nH]1)N1N=C(c2cccs2)CC1c1cccs1 (stereo unspecified)
IC50 (HEPG2TOX_HILL_SLOPE 0.148, HEPG2TOX_R_SQUARED 0.0376, read-out: LUCIFERASE INFECTION ASSAY - IC50): > 10 µM | IC90: > 10 µM

Cc1nnc(SCCOc2ccc(C(C)(C)C)cc2)n1C1CCCCC1
IC50 (HEPG2TOX_HILL_SLOPE 0.16, HEPG2TOX_R_SQUARED 0.182, read-out: LUCIFERASE INFECTION ASSAY - IC50): > 10 µM | IC90: > 10 µM

CC(Sc1nc(=O)c2c3c(sc2[nH]1)CCCC3)C(=O)Nc1ccc2ccccc2c1 (stereo unspecified)
IC50 (HEPG2TOX_HILL_SLOPE 0.165, HEPG2TOX_R_SQUARED 0.248, read-out: LUCIFERASE INFECTION ASSAY - IC50): > 10 µM | IC90: > 10 µM

CCn1c(O)c(C2NCCc3c2[nH]c2ccc(OC)cc32)c(=O)[nH]c1=O (stereo unspecified)
IC50 (HEPG2TOX_HILL_SLOPE 0.178, HEPG2TOX_R_SQUARED 0.706, PBLUC_HILL_SLOPE 1.13, PBLUC_R_SQUARED 0.918, read-out: LUCIFERASE INFECTION ASSAY - IC50): 0.675 µM | IC90: 4.71 µM

Fc1ccc(-c2cnc3cnc(-c4cccs4)cn23)cc1Cl
IC50 (HEPG2TOX_HILL_SLOPE 0.129, HEPG2TOX_R_SQUARED 0.552, PBLUC_HILL_SLOPE 2.11, PBLUC_R_SQUARED 0.543, read-out: LUCIFERASE INFECTION ASSAY - IC50): 4.6 µM | IC90: > 10 µM

Cc1nc(CCNC(=O)Cc2cn(-c3ccccc3)nc2-c2ccc(Cl)cc2)cs1
IC50 (HEPG2TOX_HILL_SLOPE 0.133, HEPG2TOX_R_SQUARED 0.316, PBLUC_HILL_SLOPE 7.24, PBLUC_R_SQUARED 0.0479, read-out: LUCIFERASE INFECTION ASSAY - IC50): 8.62 µM | IC90: > 10 µM

CC(C)c1cccc(Nc2nnc(C(O)c3cccc(N(C)C)c3)s2)c1 (stereo unspecified)
IC50 (HEPG2TOX_HILL_SLOPE 0.177, HEPG2TOX_R_SQUARED 0.124, PBLUC_HILL_SLOPE 3.19, PBLUC_R_SQUARED 0.0119, read-out: LUCIFERASE INFECTION ASSAY - IC50): > 10 µM | IC90: > 10 µM

CC(C)[C@H](NC(=O)c1ccccc1Cl)C(=O)OC(C(=O)Nc1cccc(C(F)(F)F)c1)c1ccccc1 (stereo partly specified)
IC50 (HEPG2TOX_HILL_SLOPE 0.157, HEPG2TOX_R_SQUARED 0.175, read-out: LUCIFERASE INFECTION ASSAY - IC50): > 10 µM | IC90: > 10 µM

CC(C)(C)c1nc(-c2ccc(N)cc2)no1
IC50 (HEPG2TOX_HILL_SLOPE 0.127, HEPG2TOX_R_SQUARED 0.315, PBLUC_HILL_SLOPE 1.58, PBLUC_R_SQUARED 0.494, read-out: LUCIFERASE INFECTION ASSAY - IC50): 2.28 µM | IC90: 9.21 µM

CC(C)(CNC(=O)c1ccc(F)cc1)SCc1ccc(F)cc1
IC50 (HEPG2TOX_HILL_SLOPE 0.147, HEPG2TOX_R_SQUARED 0.538, PBLUC_HILL_SLOPE 1.03, PBLUC_R_SQUARED 0.662, read-out: LUCIFERASE INFECTION ASSAY - IC50): 3.54 µM | IC90: > 9.84 µM

Cc1ccc(S(=O)(=O)Oc2c(C(C)C)cc(Nc3cc(C)ccc3C)cc2C(C)C)cc1
IC50 (HEPG2TOX_HILL_SLOPE 0.156, HEPG2TOX_R_SQUARED 0.126, PBLUC_HILL_SLOPE 13.1, PBLUC_R_SQUARED 0.436, read-out: LUCIFERASE INFECTION ASSAY - IC50): 9 µM | IC90: > 10 µM

Cc1cc(C(=O)COC(=O)c2ccccc2C(F)(F)F)c(C)n1Cc1ccccc1Cl
IC50 (HEPG2TOX_HILL_SLOPE 0.164, HEPG2TOX_R_SQUARED 0.816, PBLUC_HILL_SLOPE 1.63, 0.884, PBLUC_R_SQUARED 0.848, 0.800, read-out: LUCIFERASE INFECTION ASSAY - IC50): 0.696 µM | IC90: 3.52 µM

CC1CCN(Cc2csc(NC(=O)c3ccc4ncsc4c3)n2)CC1
IC50 (HEPG2TOX_HILL_SLOPE 0.129, HEPG2TOX_R_SQUARED 0.115, read-out: LUCIFERASE INFECTION ASSAY - IC50): > 10 µM | IC90: > 10 µM

NC(=O)c1cccc(-c2cn3c(-c4ccccc4)cnc3cn2)c1
IC50 (HEPG2TOX_HILL_SLOPE 0.15, HEPG2TOX_R_SQUARED 0.654, PBLUC_HILL_SLOPE 0.762, PBLUC_R_SQUARED 0.254, read-out: LUCIFERASE INFECTION ASSAY - IC50): > 10.5 µM | IC90: > 10.5 µM

N#Cc1c(SCC(=O)c2ccccc2)nc2c(c1-c1ccccc1)CCCC2
IC50 (HEPG2TOX_HILL_SLOPE 0.131, HEPG2TOX_R_SQUARED 0.0459, PBLUC_HILL_SLOPE 1.72, PBLUC_R_SQUARED 0.594, read-out: LUCIFERASE INFECTION ASSAY - IC50): 1.78 µM | IC90: 6.39 µM

O=C(NC1CCCCC1C(F)(F)F)c1csc(-c2ccccc2)n1 (stereo unspecified)
IC50 (HEPG2TOX_HILL_SLOPE 0.159, HEPG2TOX_R_SQUARED 0.617, PBLUC_HILL_SLOPE 14, PBLUC_R_SQUARED 0.734, read-out: LUCIFERASE INFECTION ASSAY - IC50): 3.35 µM | IC90: 3.92 µM

CCOc1ccc(C(=O)Nc2nc3ccccn3c2C(=O)NC(C)C)cc1
IC50 (HEPG2TOX_HILL_SLOPE 0.179, HEPG2TOX_R_SQUARED 0.152, PBLUC_HILL_SLOPE 1.27, PBLUC_R_SQUARED 0.525, read-out: LUCIFERASE INFECTION ASSAY - IC50): 1.5 µM | IC90: 8.41 µM

CCOC(=O)c1c(NC(=O)C2Cc3ccccc3CN2S(=O)(=O)c2cccs2)sc2c1CCCC2 (stereo unspecified)
IC50 (HEPG2TOX_HILL_SLOPE 0.167, HEPG2TOX_R_SQUARED 0.0943, PBLUC_HILL_SLOPE 2.23, PBLUC_R_SQUARED 0.122, read-out: LUCIFERASE INFECTION ASSAY - IC50): 6.53 µM | IC90: > 10 µM

CC(=O)c1cccc(-c2cnc3ccc(-c4cccc(Oc5ccccc5)c4)nn23)c1
IC50 (HEPG2TOX_HILL_SLOPE 0.164, HEPG2TOX_R_SQUARED 0.772, PBLUC_HILL_SLOPE 1.12, PBLUC_R_SQUARED 0.566, read-out: LUCIFERASE INFECTION ASSAY - IC50): 1.9 µM | IC90: > 10 µM

Cc1ccc(C)c(NC(=O)C(OC(=O)c2c3c(nc4ccccc24)CCN(C)C3)c2ccccc2)c1 (stereo unspecified)
IC50 (HEPG2TOX_HILL_SLOPE 0.135, HEPG2TOX_R_SQUARED 0.194, read-out: LUCIFERASE INFECTION ASSAY - IC50): > 10 µM | IC90: > 10 µM

O=C(CCC1CCCC1)N1CCC(c2nnc3n2CCC3)CC1
IC50 (HEPG2TOX_HILL_SLOPE 0.129, HEPG2TOX_R_SQUARED 0.379, read-out: LUCIFERASE INFECTION ASSAY - IC50): > 10 µM | IC90: > 10 µM

CCCCNS(=O)(=O)c1ccc2nc(SCC3CCCO3)[nH]c2c1 (stereo unspecified)
IC50 (HEPG2TOX_HILL_SLOPE 0.14, HEPG2TOX_R_SQUARED 0.119, PBLUC_HILL_SLOPE 2.38, PBLUC_R_SQUARED 0.33, read-out: LUCIFERASE INFECTION ASSAY - IC50): 9.76 µM | IC90: > 10 µM

CN(C)S(=O)(=O)c1cccc(NC(=O)c2ccc(-n3cnc4ccccc43)cc2)c1
IC50 (HEPG2TOX_HILL_SLOPE 0.179, HEPG2TOX_R_SQUARED 0.448, PBLUC_HILL_SLOPE 2.55, PBLUC_R_SQUARED 0.642, read-out: LUCIFERASE INFECTION ASSAY - IC50): 2.67 µM | IC90: 6.32 µM

Fc1ccc(-c2ccc3ncc(-c4cccnc4)n3n2)cc1
IC50 (HEPG2TOX_HILL_SLOPE 0.173, HEPG2TOX_R_SQUARED 0.325, read-out: LUCIFERASE INFECTION ASSAY - IC50): > 3.33 µM | IC90: > 3.33 µM

Cc1[nH]c2ccccc2c1C(=O)C(C)OC(=O)C1(c2cccc(F)c2)CCCC1 (stereo unspecified)
IC50 (HEPG2TOX_HILL_SLOPE 0.175, HEPG2TOX_R_SQUARED 0.148, read-out: LUCIFERASE INFECTION ASSAY - IC50): > 10 µM | IC90: > 10 µM
